Data: patent publication US6468472B1 (priority 1999, dated 2002)
Where two headings read alike, the source gives them in different places.

What was measured:
Bacillus subtilis spores = conditions: cited from earlier work
[1] = test system: pathogenic microorganisms; conditions: cited from earlier work; for minimum effective concentration for high-level disinfection: 20° C.
[2] = Peracetic acid stability versus pH; format: physicochemical; conditions: acetic acid buffer at pH 5.0-5.8
[3] = second-order dependence on peracetic acid concentration (Yuan et al.); cited from earlier work

Row | SMILES | time for killing all Bacillus subtilis spores (Bacillus subtilis spores; pH 5) [h] | time for killing all Bacillus subtilis spores (Bacillus subtilis spores; pH 8) [h] | minimum effective concentration for high-level disinfection ([1]; 30 min, Sporox) [%] | amount which can be stably maintained [2] | time for killing all Bacillus subtilis spores (Bacillus subtilis spores; PAA at 0.013 m/l (0.10% w/v), pH 5.0) [h] | time for killing all Bacillus subtilis spores (Bacillus subtilis spores; PAA at 0.013 m/l (0.10% w/v), pH 8.0) [h] | reduction in sporicidal rate of kill activity between pH 8.0 and pH 5.0 (Bacillus subtilis spores; PAA at 0.13-0.38 m/l (0.99-2.89% w/v)) | decrease of sporicidal activity between pH 2.6 and pH 8.0 (factor) (Bacillus subtilis spores; work of Baldry) | increase in sporicidal kill time at pH 8.0 versus 5.0 (Bacillus subtilis spores; work of Baldry) [times] | increase in kill time at pH 2.6 versus pH 5.0 (Bacillus subtilis spores; work of Baldry, possible factor) [times] | minimum effective concentration for high-level disinfection ([1]; 25 min, Peract) [%] | minimum effective concentration for high level disinfection in a short time interval or sterilization over a longer soak period [1] [ppm] | pH of maximum decomposition rate [3]
1 | OO [Formulation H2O2, hydrogen peroxide] | 3 | 6 | 6.0 |  |  |  |  |  |  |  |  |  | 
2 | CC(=O)OO [PAA, peracetic acid] |  |  |  | less than 700 ppm | 1 | > 6 | did not show a reduction | 3-10 times | 6 | 2 | 0.05 | 500 | 8.2
